Activity calls are given as the source filed them. The rule behind the calls is not given here.
Experiments:
[1] = Cytotoxicity against PBMC; assay type: cell-based; conditions: human
[2] = tested on: Human immunodeficiency virus 1; assay: Antiviral activity against HIV1 BaL in PBMC; assay type: functional, organism-based; conditions: for EC50: Human immunodeficiency virus 1, BaL
[3] = tested on: Human immunodeficiency virus 1; assay: Antiviral activity against HIV1 LAV in PBMC; assay type: functional, organism-based; conditions: for EC50: Human immunodeficiency virus 1, LAV

Structure (SMILES) | CC50 [1] | Activity [2] | EC50 [3] | EC50 [2] | Activity [3]
c1cc(CN2CCCNCCNCCCNCC2)cc(CN2CCCNCCNCCCNCC2)c1 | > 10 µM | inactive | 0.05 µM |  | 
Oc1ccc(CN2CCCNCCCNCCNCCC2)c2cccnc12 | > 10 µM |  | 1.5 µM | 1.25 µM | 
Oc1ccc(CN2CCCNCCN(Cc3ccc(CN4CCCNCCNCCCNCC4)cc3)CCCNCC2)c2cccnc12 | > 10 µM |  | 0.7 µM | 3.5 µM | 
c1cc(CN2CCCNCCNCCCNCC2)ccc1CN1CCCNCCNCCCNCC1 [PLERIXAFOR] | > 10 µM | inactive | 0.47 µM |  | 
Oc1ccc(CNCCCNCc2ccc(O)c3ncccc23)c2cccnc12 | > 10 µM | inactive |  |  | inactive
Oc1ccc(CN2CCCN(Cc3ccc(O)c4ncccc34)CCNCCCNCC2)c2cccnc12 | 8 µM | Toxic | 4.1 µM |  | 
Oc1ccc(CN2CCCNCCNCCCNCC2)c2cccnc12 | > 10 µM |  | 4.1 µM | 4.35 µM | 
Oc1ccc(CNCc2ccc(CNCc3ccc(O)c4ncccc34)cc2)c2cccnc12 | > 10 µM | inactive |  |  | inactive
Oc1ccc(CN2CCN(Cc3ccc(O)c4ncccc34)CC2)c2cccnc12 | > 10 µM | inactive |  |  | inactive
Oc1ccc(CCl)c2cccnc12 | > 10 µM | inactive | 5.1 µM |  | 
Oc1c(I)cc(Cl)c2cccnc12 [CLIOQUINOL] | 2 µM | inactive |  |  | inactive
